This note sets out measurements from PubChem BioAssay (NCI).

Some test systems named below: DLD-1 colon; DMS 114 small cell lung; HOP-18 NSCLC; M19-MEL melanoma; SNB-78 CNS; XF 498 CNS; RXF-631 renal.
Common to all, as to assay: growth of human tumour cells (NCI), 48 h

Where “and” joins values, the source holds several entries; their conditions need not be identical. Equal values may be shown once.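 All cell lines were grown in 96-well plates and treated with compound for 48 hours. TGI denotes the concentration required for complete inhibition of growth.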 Bounds are passed on as bounds.

Consider `Cc1nc2c(o1)C(=Nc1ccccc1)c1ccccc1C2=O`, for which the TGI in the experiment on DLD-1 colon was determined as 32 µM; in the experiment with DMS 114 small cell lung it was 8.57 µM; in the experiment on HOP-18 NSCLC, 18 µM; with M19-MEL melanoma, 3.65 µM; in the experiment on SNB-78 CNS, 37.6 µM; in the experiment on XF 498 CNS, 12.5 µM.

Take `Cc1ccc(C(=O)N(Cc2ccccc2)Cc2ccccc2)cc1N=NN(C)C`: the TGI in the experiment on DLD-1 colon and in the experiment with SNB-78 CNS was more than 100 µM throughout.

In the case of `CCn1c(SC(C)C(=O)c2c(C)n(C)n(-c3ccccc3)c2=O)nc2ccccc2c1=O` (centres undefined), the TGI in the experiment on DLD-1 colon, with DMS 114 small cell lung, in the experiment on M19-MEL melanoma and in the experiment with SNB-78 CNS was more than 100 µM throughout.

For the compound `NC(=O)c1ccccc1NC(=O)C(=O)Cc1nc2ccccc2[nH]c1=O`, the TGI in the experiment with DLD-1 colon, in the experiment with DMS 114 small cell lung, in the experiment on M19-MEL melanoma and with RXF-631 renal was more than 100 µM each time.

With `CCN(CC)c1ccc(N=Nc2ccc([N+](=O)[O-])cc2OC(=O)/C=C/c2ccccc2)c(OC(=O)/C=C/c2ccccc2)c1`, the TGI was more than 100 µM with DLD-1 colon; more than 25.2 µM in the experiment on DMS 114 small cell lung; 9.04 µM in the experiment with HOP-18 NSCLC; more than 100 µM in the experiment with M19-MEL melanoma; more than 100 µM in the experiment on RXF-631 renal; more than 100 µM in the experiment with SNB-78 CNS. Further, the TGI in the experiment with XF 498 CNS was more than 100 µM.

On to `O=c1cc(-c2c[nH]c3ccccc23)[nH]c2cc3c(cc12)OCO3`, for which the TGI in the experiment with DLD-1 colon, in the experiment on DMS 114 small cell lung, in the experiment on M19-MEL melanoma, in the experiment on RXF-631 renal and in the experiment with XF 498 CNS was more than 100 µM in each case.

In the case of `Cc1c(CCO)c(=O)n2c([nH]c3ccccc32)c1C#N`, the TGI in the experiment with DLD-1 colon, in the experiment with DMS 114 small cell lung, with HOP-18 NSCLC, with M19-MEL melanoma, with SNB-78 CNS and in the experiment on XF 498 CNS was more than 100 µM throughout.

On to `CCCC(C)n1c(C)nc2c1C(=O)c1ccccc1C2=O` (centres undefined), for which the TGI was more than 100 µM in the experiment with DLD-1 colon, 29.1 µM in the experiment on M19-MEL melanoma, more than 100 µM in the experiment with SNB-78 CNS and 50.1 µM in the experiment with XF 498 CNS.

As for `COc1cc(CNc2cnc3cc(N)ccc3n2)cc(OC)c1OC`, the TGI in the experiment on DLD-1 colon is more than 100 µM; with DMS 114 small cell lung, 61 µM; in the experiment with HOP-18 NSCLC, more than 100 µM; in the experiment on M19-MEL melanoma, more than 100 µM; in the experiment on XF 498 CNS, more than 100 µM.

Consider `O=C1c2ccccc2C(=O)c2c(O)c(NCCCNCCO)cc(O)c21`, for which the TGI in the experiment on DLD-1 colon was 19.8 µM; with DMS 114 small cell lung, 26.2 µM; with HOP-18 NSCLC it was 17.5 µM; in the experiment with M19-MEL melanoma, 27.4 µM; with RXF-631 renal it was 25 µM; in the experiment with SNB-78 CNS, 39.8 µM. Further, the TGI in the experiment on XF 498 CNS was 32.7 µM.

As for `O=C(/C=C/c1ccco1)c1ccc(NCc2nc3ccccc3[nH]2)cc1`, the TGI is 32.4 µM with DLD-1 colon; 26 µM with DMS 114 small cell lung; 44.5 µM with HOP-18 NSCLC; 29.4 µM in the experiment with M19-MEL melanoma; 58.4 µM with SNB-78 CNS.

As for `CC(=O)NC1C(OCc2ccccc2)OC(CO)C(O)C1OC(C)C(=O)N[C@@H](C)C(=O)N[C@H](CCC(=O)OCCNc1c2ccccc2nc2cccc([N+](=O)[O-])c12)C(N)=O` (some centres undefined), the TGI with DLD-1 colon was 0.0128 µM; in the experiment on DMS 114 small cell lung, 0.00839 µM; in the experiment on HOP-18 NSCLC it was 0.00289 µM and 0.00803 µM; with SNB-78 CNS, 0.0809 µM.

Consider `COC(=O)/C(=N/Nc1cccc(Cl)c1)C(C(=O)C(=O)Nc1cccc(Cl)c1C)c1nc2ccccc2nc1C` (centres undefined), for which the TGI in the experiment on DLD-1 colon, in the experiment with DMS 114 small cell lung and in the experiment on M19-MEL melanoma was more than 100 µM each time.

`COC(=O)C1C=CCON2CCc3c(n(C)c4ccccc34)C12` (centres undefined): the TGI in the experiment on DLD-1 colon, with DMS 114 small cell lung, with M19-MEL melanoma, with RXF-631 renal, with SNB-78 CNS and in the experiment with XF 498 CNS was more than 100 µM each time.

Regarding `CC1(C)O[C@@H](CCl)C[C@H](C#N)O1`, the TGI in the experiment on DLD-1 colon, in the experiment with DMS 114 small cell lung, with HOP-18 NSCLC, in the experiment on M19-MEL melanoma, in the experiment on SNB-78 CNS and in the experiment with XF 498 CNS was more than 100 µM each time.
